Like-named read-outs stand apart in the source and are kept apart here.

For test [1], the target named is T1, Hsc70 (Homo sapiens, UniProt P11142). Briefly: malachite green ATP turnover assay. Format: biochemical.
Test [2] has as its target T1, Hsc70. Description: direct binding by quench of compound fluorescence.
Test [3] deals with T1, Hsc70. Description: direct binding by quench of compound fluorescence. This is another data set of the same source.
The target of test [4] is Hsp72 (Homo sapiens) (UniProt P0DMV8). The settings on record: cited from earlier work.
The target is the same in test [5]. The settings on record: cited from earlier work. The source holds these as a separate data set.

T1 sequence (P11142 whole entry): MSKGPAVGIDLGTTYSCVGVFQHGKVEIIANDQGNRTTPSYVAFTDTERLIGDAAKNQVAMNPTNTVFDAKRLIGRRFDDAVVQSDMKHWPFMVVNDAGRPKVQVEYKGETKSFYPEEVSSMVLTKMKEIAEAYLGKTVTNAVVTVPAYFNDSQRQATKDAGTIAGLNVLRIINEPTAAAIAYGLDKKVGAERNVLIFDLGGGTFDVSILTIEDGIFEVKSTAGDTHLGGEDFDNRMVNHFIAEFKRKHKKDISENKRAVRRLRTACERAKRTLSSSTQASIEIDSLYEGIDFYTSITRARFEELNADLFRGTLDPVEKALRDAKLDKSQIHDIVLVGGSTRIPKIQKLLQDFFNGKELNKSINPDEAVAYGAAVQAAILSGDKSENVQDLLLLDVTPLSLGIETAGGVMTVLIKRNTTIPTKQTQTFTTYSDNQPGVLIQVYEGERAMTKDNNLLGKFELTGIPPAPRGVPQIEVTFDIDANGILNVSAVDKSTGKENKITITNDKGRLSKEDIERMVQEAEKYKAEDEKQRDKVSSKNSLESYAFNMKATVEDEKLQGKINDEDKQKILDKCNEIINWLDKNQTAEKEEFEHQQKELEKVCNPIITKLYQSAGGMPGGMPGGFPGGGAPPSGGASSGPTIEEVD
BAG1, sequence (Q99933 whole entry): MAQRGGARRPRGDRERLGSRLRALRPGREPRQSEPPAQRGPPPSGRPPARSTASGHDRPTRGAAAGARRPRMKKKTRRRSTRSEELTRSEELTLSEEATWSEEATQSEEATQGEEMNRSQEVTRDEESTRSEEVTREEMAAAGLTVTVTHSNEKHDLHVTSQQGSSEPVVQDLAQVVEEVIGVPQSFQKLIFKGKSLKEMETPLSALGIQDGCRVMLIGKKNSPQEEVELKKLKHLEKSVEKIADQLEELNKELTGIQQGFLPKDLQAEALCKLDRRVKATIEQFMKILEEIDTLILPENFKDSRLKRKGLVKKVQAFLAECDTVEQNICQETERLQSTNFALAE
Hsp72 (Homo sapiens), sequence (P0DMV8 2-641): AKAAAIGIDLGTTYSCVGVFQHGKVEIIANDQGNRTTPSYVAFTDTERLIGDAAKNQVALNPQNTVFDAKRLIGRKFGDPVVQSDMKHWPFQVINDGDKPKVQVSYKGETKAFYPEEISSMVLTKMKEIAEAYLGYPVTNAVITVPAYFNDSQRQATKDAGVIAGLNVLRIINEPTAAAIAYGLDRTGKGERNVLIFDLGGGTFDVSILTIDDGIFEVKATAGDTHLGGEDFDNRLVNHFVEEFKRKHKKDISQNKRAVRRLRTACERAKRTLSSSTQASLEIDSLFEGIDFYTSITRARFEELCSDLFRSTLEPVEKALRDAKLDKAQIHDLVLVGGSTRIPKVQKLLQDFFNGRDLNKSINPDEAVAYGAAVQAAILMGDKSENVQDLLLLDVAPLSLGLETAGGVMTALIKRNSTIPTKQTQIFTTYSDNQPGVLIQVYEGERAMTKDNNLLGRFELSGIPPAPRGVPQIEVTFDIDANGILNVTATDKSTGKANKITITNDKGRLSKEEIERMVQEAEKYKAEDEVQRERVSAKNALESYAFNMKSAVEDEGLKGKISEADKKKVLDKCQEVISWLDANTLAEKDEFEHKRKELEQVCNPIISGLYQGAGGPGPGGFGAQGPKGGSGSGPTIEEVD

For `Nc1ncnc2c1ncn2[C@@H]1O[C@H](COP(=O)(O)OP(=O)(O)OP(=O)(O)O)[C@@H](O)[C@H]1O` [ATP], the “malachite green ATP turnover assay; partial proteolysis in the ATP-bound state” value on Hsc70 [1] is ~ 2 pmol/µM Hsc70/min.

For the molecule `CCn1c(=O)/c(=C2\Sc3cc(Cl)ccc3N2C)s/c1=C\c1scc[n+]1Cc1cccc(C(F)(F)F)c1` [JG-115, 2-((Z)-((E)-5-(6-chloro-3-methylbenzo[d]thiazol-2(3H)-ylidene)-3-ethyl-4-oxothiazolidin-2-ylidene)methyl)-3-(3-(trifluoromethyl)benzyl)thiazol-3-ium chloride], the Kd (in general, the concentration at which binding is half-saturated) at Hsc70 [2] was approximately 3100 nM.

Consider `CCn1c(=O)/c(=C2\Sc3cc(Cl)ccc3N2C)s/c1=C\c1scc[n+]1Cc1ccc(C(F)(F)F)cc1` [JG-118, 2-((Z)-((E)-5-(6-chloro-3-methylbenzo[d]thiazol-2(3H)-ylidene)-3-ethyl-4-oxothiazolidin-2-ylidene)methyl)-3-(4-(trifluoromethyl)benzyl)thiazol-3-ium chloride], for which the Kd on Hsc70 [2] was approximately 2600 nM.

Molecule `CCn1c(=O)/c(=C2\Sc3cc(Cl)ccc3N2C)s/c1=C\c1scc[n+]1Cc1ccccc1OC(F)F` [JG-237, 2-((Z)-((E)-5-(6-chloro-3-methylbenzo[d]thiazol-2(3H)-ylidene)-3-ethyl-4-oxothiazolidin-2-ylidene)methyl)-3-(2-(difluoromethoxy)benzyl)thiazol-3-ium chloride] yielded a Kd at Hsc70 [3] of 1500 ± 300 nM.

For the molecule BAG1 (from UniProt Q99933), the Kd with Hsp72 (Homo sapiens) [4] is 36 nM; in the test with Hsp72 (Homo sapiens) [5] it was 8 nM.

These data come from article PMC6377810 (ACS chemical biology, 2018).
